Data on nine compounds can be found in patent publication US7635572B2, “Methods for conducting assays for enzyme activity on protein microarrays” (Life Technologies Corporation, priority 2004, dated 2009).

Each structure is given as a SMILES string.

What all share (experiment): Further analysis of a plurality of inhibitors and a plurality of kinases on microarray (Example IX, Table 5);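 for Inhibition level, LOC57118: level 0 none or unclear then 1 little or marginal then 2 substantial inhibition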;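 for Inhibition level, MAP3K7: level 0 none or unclear then 1 little or marginal then 2 substantial inhibition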;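 for Inhibition level, PRKCI: level 0 none or unclear Level 1 marginal Level 2 substantial inhibition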
Holding throughout (assay type): biochemical

The target of test [1] is T1, plurality of kinases (Table 5) (Homo sapiens, UniProt O43318).
T1 sequence (O43318 1-606): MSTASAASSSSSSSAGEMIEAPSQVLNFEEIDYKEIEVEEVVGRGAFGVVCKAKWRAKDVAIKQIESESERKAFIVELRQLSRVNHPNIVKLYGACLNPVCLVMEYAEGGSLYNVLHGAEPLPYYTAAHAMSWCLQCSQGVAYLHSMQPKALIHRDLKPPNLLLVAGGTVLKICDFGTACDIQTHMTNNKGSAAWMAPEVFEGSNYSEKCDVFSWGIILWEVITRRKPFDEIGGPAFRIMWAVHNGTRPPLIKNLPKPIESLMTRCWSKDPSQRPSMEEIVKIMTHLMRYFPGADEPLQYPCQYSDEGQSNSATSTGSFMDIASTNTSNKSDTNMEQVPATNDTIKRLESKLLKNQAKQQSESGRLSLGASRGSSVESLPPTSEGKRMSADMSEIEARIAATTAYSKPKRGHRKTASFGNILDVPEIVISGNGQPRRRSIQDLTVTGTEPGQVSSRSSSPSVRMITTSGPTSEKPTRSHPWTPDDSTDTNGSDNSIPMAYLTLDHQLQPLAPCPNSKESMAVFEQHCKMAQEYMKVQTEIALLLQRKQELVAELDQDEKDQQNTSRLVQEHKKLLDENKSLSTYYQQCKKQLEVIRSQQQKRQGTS
The note with it: plate G9.

For test [2], the target named is T2, plurality of kinases (Table 5) (Homo sapiens, UniProt P41743).
T2 sequence (P41743 1-596): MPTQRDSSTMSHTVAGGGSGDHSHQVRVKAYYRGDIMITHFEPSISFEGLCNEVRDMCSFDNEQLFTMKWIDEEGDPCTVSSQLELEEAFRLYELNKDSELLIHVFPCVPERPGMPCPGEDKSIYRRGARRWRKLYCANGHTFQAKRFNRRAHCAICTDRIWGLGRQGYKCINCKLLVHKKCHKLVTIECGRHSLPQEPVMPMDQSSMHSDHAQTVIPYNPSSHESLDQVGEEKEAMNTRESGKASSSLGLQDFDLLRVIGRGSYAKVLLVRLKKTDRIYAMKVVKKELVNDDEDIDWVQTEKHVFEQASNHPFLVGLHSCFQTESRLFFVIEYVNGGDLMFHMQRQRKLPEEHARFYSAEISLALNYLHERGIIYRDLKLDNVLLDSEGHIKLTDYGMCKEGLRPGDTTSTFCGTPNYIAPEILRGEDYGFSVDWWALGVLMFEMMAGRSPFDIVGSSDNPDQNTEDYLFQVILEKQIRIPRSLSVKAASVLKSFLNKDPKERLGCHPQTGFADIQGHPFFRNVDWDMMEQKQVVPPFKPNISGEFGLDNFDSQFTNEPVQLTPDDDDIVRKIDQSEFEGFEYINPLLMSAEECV
To be noted: plate A2.

The target of test [3] is T3, plurality of kinases (Table 5) (Homo sapiens, UniProt Q12866).
T3 sequence (Q12866 21-999): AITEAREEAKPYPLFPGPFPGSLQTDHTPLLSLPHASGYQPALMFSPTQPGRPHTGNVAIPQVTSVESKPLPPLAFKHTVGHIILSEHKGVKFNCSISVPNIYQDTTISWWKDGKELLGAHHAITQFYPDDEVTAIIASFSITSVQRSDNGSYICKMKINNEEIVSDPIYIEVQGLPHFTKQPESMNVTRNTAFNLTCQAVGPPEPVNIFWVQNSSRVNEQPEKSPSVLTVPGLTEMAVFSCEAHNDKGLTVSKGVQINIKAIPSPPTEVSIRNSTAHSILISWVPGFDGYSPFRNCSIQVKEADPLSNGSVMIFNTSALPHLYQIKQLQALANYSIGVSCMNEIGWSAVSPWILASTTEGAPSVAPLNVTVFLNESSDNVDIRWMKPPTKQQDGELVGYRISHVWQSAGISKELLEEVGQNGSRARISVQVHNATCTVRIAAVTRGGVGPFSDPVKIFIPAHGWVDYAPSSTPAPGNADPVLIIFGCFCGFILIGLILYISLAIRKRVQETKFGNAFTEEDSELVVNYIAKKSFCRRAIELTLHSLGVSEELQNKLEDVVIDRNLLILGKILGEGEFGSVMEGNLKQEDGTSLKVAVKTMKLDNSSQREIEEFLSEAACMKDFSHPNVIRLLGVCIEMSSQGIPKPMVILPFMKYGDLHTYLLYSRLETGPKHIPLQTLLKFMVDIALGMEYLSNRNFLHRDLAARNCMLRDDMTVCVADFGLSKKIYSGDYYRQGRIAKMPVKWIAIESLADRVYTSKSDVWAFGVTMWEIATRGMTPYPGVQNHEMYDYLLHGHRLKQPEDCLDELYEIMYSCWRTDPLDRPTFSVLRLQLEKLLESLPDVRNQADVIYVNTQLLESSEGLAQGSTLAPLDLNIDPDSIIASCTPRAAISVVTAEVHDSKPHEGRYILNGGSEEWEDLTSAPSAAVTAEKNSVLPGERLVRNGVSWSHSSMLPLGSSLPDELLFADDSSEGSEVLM
To be noted: plate B11; inhibitor 100 uM.

Test [4] addresses plurality of kinases (Table 5) (Homo sapiens, UniProt Q8IU85). To be noted: plate D2; inhibitor 100 uM.
Test [5] concerns the target T4, plurality of kinases (Table 5) (Homo sapiens, UniProt Q99759).
T4 sequence (Q99759 1-626): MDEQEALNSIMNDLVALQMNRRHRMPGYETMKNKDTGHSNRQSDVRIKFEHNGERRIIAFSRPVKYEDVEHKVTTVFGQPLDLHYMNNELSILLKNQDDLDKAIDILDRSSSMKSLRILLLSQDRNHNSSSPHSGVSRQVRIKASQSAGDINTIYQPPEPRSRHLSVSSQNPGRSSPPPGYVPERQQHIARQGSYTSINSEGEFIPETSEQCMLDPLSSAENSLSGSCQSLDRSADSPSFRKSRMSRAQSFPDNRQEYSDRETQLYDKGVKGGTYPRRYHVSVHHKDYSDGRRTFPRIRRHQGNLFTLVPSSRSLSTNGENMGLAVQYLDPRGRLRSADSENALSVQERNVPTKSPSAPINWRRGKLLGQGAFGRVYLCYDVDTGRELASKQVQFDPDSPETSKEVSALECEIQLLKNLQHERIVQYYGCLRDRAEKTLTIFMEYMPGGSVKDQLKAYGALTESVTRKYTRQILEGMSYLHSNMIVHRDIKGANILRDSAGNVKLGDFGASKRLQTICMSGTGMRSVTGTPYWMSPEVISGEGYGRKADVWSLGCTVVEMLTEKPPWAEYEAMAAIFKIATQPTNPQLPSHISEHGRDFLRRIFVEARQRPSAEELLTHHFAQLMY
To be noted: plate A1.

Chain of plurality of kinases (Table 5) (Homo sapiens, UniProt Q8IU85) (Q8IU85 whole entry): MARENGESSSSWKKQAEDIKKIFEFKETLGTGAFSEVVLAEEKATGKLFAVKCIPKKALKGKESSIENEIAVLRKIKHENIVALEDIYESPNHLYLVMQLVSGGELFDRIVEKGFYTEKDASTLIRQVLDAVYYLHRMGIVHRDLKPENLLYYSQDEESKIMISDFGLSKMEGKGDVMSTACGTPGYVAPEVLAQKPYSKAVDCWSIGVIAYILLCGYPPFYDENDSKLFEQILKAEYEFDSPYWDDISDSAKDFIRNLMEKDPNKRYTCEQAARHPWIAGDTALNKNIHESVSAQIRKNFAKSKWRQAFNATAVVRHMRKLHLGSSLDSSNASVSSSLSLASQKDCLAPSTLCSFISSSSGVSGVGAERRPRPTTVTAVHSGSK

For `O=c1c(-c2ccc(O)cc2)coc2cc(O)cc(O)c12` [Genistein], the entries for the “Inhibition level, MAP3K7” value in test [1] (Genistein <3.7 mM) and in test [1] (inhibitor 100 uM) were 0 and 1, respectively. For the same compound, the “Inhibition level, PRKCI” value in test [2] (Genistein <3.7 mM) is on record as 0; in test [2] (inhibitor 100 uM), 2. Moreover, the “Inhibition level, MERTK” value in test [3] is on record as 2. The “Inhibition level, LOC57118” value in test [4] worked out at 0. Besides, the “Inhibition level, MAP3K3” value in test [5] (Genistein <3.7 mM) and in test [5] (inhibitor 100 uM) was 2 throughout.
Regarding `O=S(=O)(NCCNC/C=C/c1ccc(Br)cc1)c1cccc2cnccc12` [H-89], the “Inhibition level, MAP3K7” value in test [1] (inhibitor 100 uM) is 2. Besides, the “Inhibition level, PRKCI” value in test [2] (inhibitor 100 uM) is 2. Moreover, in test [3], the “Inhibition level, MERTK” value came to 2. Besides, the “Inhibition level, LOC57118” value in test [4] is 1. Moreover, in test [5] (inhibitor 100 uM), the “Inhibition level, MAP3K3” value was found to be 2.
Regarding `O=c1c(O)c(-c2ccc(O)c(O)c2)oc2cc(O)cc(O)c12` [Quercetin], in test [2] (inhibitor 100 uM), the “Inhibition level, PRKCI” value is given as 0. The “Inhibition level, MERTK” value in test [3] came to 1. The “Inhibition level, LOC57118” value in test [4] came to 0. Besides, the “Inhibition level, MAP3K3” value in test [5] (inhibitor 100 uM) came out at 0.
With `COc1cc2ncnc(Nc3cccc(Cl)c3)c2cc1OC` [AG 1478], the “Inhibition level, MAP3K7” value in test [1] (inhibitor 100 uM) is listed as 0. Also, the “Inhibition level, PRKCI” value in test [2] (inhibitor 100 uM) was found to be 0. The “Inhibition level, MERTK” value in test [3] came to 2. Also, the “Inhibition level, LOC57118” value in test [4] came out at 0. For the same compound, the “Inhibition level, MAP3K3” value in test [5] (inhibitor 100 uM) worked out at 2.
Consider `N#C/C(=C/c1ccc(O)c(O)c1)C(=O)NCc1ccccc1` [AG 490], for which the “Inhibition level, MAP3K7” value in test [1] (inhibitor 100 uM) is 0. In test [2] (inhibitor 100 uM), the “Inhibition level, PRKCI” value was 2. In addition, in test [3], the “Inhibition level, MERTK” value is listed as 2. For the same compound, the “Inhibition level, LOC57118” value in test [4] was found to be 1. For the same compound, the “Inhibition level, MAP3K3” value in test [5] (inhibitor 100 uM) is listed as 2.
On to `CN[C@@H]1C[C@H]2O[C@@](C)([C@@H]1OC)n1c3ccccc3c3c4c(c5c6ccccc6n2c5c31)C(=O)NC4` [Staurosporine], for which, in test [5] (Staurosporine 21.5 uM), the “Inhibition level, MAP3K3” value turned out to be 2.
In the case of `Cn1cc(C2=C(c3cn(CCCSC(=N)N)c4ccccc34)C(=O)NC2=O)c2ccccc21` [Ro-31-8220], the “Inhibition level, MAP3K7” value in test [1] (Ro-31-8220 90 uM) and in test [1] (inhibitor 100 uM) was 2 in each case. The “Inhibition level, PRKCI” value in test [2] (Ro-31-8220 90 uM) is 2; in test [2] (inhibitor 100 uM), 0. Further, the “Inhibition level, MERTK” value in test [3] came to 2. For the same compound, in test [4], the “Inhibition level, LOC57118” value turned out to be 0. Besides, the “Inhibition level, MAP3K3” value turned out to be 2 in test [5] (Ro-31-8220 90 uM) and 0 in test [5] (inhibitor 100 uM).
As for `CC(=O)c1c(O)c(C)c(O)c(Cc2c(O)c3c(c(C(=O)/C=C/c4ccccc4)c2O)OC(C)(C)C=C3)c1O` [Rottlerin (Mallotoxin)], the “Inhibition level, MAP3K7” value in test [1] (inhibitor 100 uM) was determined as 2. The “Inhibition level, PRKCI” value in test [2] (inhibitor 100 uM) is reported as 2. For the same compound, the “Inhibition level, MERTK” value in test [3] is given as 2. Further, the “Inhibition level, LOC57118” value in test [4] is reported as 0. Also, in test [5] (inhibitor 100 uM), the “Inhibition level, MAP3K3” value worked out at 2.
As to `CC(C)(C)n1nc(-c2ccc(Cl)cc2)c2c(N)ncnc21` [PP2], the “Inhibition level, MAP3K7” value in test [1] (inhibitor 100 uM) came to 2. In addition, the “Inhibition level, PRKCI” value in test [2] (inhibitor 100 uM) is reported as 1. The “Inhibition level, MERTK” value in test [3] came to 2. In addition, the “Inhibition level, LOC57118” value in test [4] is 0. The “Inhibition level, MAP3K3” value in test [5] (inhibitor 100 uM) worked out at 2.
